# Data reported in US10889592B2, “Thienopyrazine carboxamides as ubiquitin-specific protease inhibitors” (VALO EARLY DISCOVERY, INC., priority 2016, dated 2021).
# pIC50: −log10 of the molar value.
# Key:
# USP28 = USP28 (Homo sapiens (Human), UniProt Q96RU2); test: Ubiquitin-Rhodamine 110 Assay for USP28 Activity; type: biochemical; conditions: Ub-Rh110 substrate 25 nM, fluorescence readout
# Method: Each assay was performed in a final volume of 20 μL in assay buffer containing 20 mM Tris-HCl (pH 8.0, (1M Tris-HCl, pH 8.0 solution; Corning 46-031-CM)), 2 mM CaCl2) (1M Calcium Chloride solution; Sigma #21114) 2 mM BME (2-Mercaptoethanol; Sigma 63689-25ML-F), 0.01% Prionex (0.22 μM filtered, Sigma # G-0411), and 0.01% Triton X-100. Stock compound solutions were stored at −20° C. as 10 mM in DMSO. Up to 1 month prior to the assay, 2 mM test compounds were pre-dispensed into assay plates (Black, low volume; Corning #3820) and frozen at −20° C. Prestamped assay plates were allowed to come to room temperature on the day of the assay. For the screen, 100 nL of 2 mM was pre-dispensed for a final screening concentration of 10 μM (DMSO(fc)=0.5%). Enzyme (USP28, construct USP28 (USP28-5(1-1077)-TEV-6*His; LifeSensors) concentration and incubation times were optimized for the maximal signal-to-background while maintaining initial velocity conditions at a fixed substrate concentration. The final concentration of the enzyme in the assay was 400 pM. Final substrate (Ub-Rh110; Ubiquitin-Rhodamine 110, R&D Systems # U-555) concentration was 25 nM with [Ub-Rh110]<<Km. 10 μL of 2× enzyme was added to assay plates (pre-stamped with compound) either simultaneously with 2×Ub-Rh110 or preincubated with USP28 40 minutes prior to the addition of 10 μL of 2×Ub-Rh110 to compound plates. Plates were incubated stacked for 90 minutes at room temperature before fluorescence was read on the Envision (Excitation at 485 nm and Emission at 535 nm; Perkin Elmer) or on the PheraSTAR (Excitation at 485 nm and Emission at 535 nm; BMG Labtech).
# For follow-up studies, Each assay was performed in a final volume of 15 μL in assay buffer containing 20 mM Tris-HCl (pH 8.0, (1M Tris-HCl, pH 8.0 solution; Corning 46-031-CM)), 3 mM BME (2-Mercaptoethanol; Sigma 63689-25ML-F), 0.03% BGG ([…] filtered, Sigma, G7516-25G), and 0.01% Triton X-100 (Sigma, T9284-10L). Nanoliter quantities of either an 8-point or 10-point, 3-fold serial dilution in DMSO was pre-dispensed into assay plates (Perkin Elmer, ProxiPlate-384 F Plus, #) for a final test concentration of either 25 μM to 11 nM or 25 μM to 1.3 nM, respectively. Enzyme USP28, construct USP28 (USP28-5(1-1077)-TEV-6*His; LifeSensors) concentration and incubation times were optimized for the maximal signal-to-background while maintaining initial velocity conditions at a fixed substrate concentration. The final concentration of the enzyme in the assay was 75 pM. Final substrate (Ub-Rh110; Ubiquitin-Rhodamine 110, R&D Systems # U-555) concentration was 25 nM with [Ub-Rh110]<<Km. 5 μL of 2× enzyme was added to assay plates (pre-stamped with compound) preincubated with USP28 for 30 minutes and then 5 μL of 2×Ub-Rh110 was added to assay plates. Plates were incubated stacked for 20 minutes at room temperature before 5 μL of stop solution was added (final concentration of 10 mM citric acid (Sigma, 251275-500G)). Fluorescence was read on the Envision (Excitation at 485 nm and Emission at 535 nm; Perkin Elmer) or on the PheraSTAR (Excitation at 485 nm and Emission at 535 nm; BMG Labtech).
# (§1) For both the USP28 and USP25 assay formats Data were reported as percent inhibition compared with control wells based on the following equation: % inh=1−((FLU−AveLow)/(AveHigh−AveLow)) where FLU=measured Fluorescence, AveLow=average Fluorescence of no enzyme control (n=16), and AveHigh=average Fluorescence of DMSO control (n=16). IC50 values were determined by curve fitting of the standard 4 parameter logistic fitting algorithm included in the Activity Base software package: IDBS XE Designer Model205. Data is fitted using the Levenburg Marquardt algorithm.
# USP25 = USP25 (Homo sapiens (Human), UniProt Q9UHP3); test: Ubiquitin-Rhodamine 110 Assay for USP25 Activity; type: biochemical; conditions: Ub-Rh110 substrate 25 nM, fluorescence readout
# Chain of USP25 (Q9UHP3 whole entry): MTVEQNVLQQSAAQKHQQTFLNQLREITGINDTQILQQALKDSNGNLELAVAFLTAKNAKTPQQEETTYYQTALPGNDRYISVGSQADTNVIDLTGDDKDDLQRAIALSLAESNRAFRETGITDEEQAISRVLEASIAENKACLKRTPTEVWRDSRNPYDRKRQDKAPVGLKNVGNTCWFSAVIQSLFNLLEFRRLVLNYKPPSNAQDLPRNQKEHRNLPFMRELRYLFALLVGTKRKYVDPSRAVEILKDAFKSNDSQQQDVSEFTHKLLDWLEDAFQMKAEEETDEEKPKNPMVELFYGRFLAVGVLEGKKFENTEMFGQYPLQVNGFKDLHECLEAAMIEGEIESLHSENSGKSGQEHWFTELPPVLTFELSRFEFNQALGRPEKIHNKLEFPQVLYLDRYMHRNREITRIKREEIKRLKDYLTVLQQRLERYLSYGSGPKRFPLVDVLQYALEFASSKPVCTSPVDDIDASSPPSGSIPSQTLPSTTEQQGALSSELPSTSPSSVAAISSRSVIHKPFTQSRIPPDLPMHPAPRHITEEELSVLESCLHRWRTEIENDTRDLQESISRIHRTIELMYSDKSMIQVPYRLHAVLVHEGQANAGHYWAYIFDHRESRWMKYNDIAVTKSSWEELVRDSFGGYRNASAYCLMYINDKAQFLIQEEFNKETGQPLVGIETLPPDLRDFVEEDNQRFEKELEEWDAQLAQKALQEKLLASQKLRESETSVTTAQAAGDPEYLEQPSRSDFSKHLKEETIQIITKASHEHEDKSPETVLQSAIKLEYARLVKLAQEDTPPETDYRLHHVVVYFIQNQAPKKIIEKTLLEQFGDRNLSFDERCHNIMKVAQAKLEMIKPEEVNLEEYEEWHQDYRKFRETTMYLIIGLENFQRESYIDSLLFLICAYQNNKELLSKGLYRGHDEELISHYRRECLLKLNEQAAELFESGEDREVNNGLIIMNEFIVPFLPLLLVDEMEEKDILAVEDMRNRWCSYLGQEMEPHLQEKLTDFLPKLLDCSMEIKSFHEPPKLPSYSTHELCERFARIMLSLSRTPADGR
# Method: The assay was performed in a final volume of 9 μL in assay buffer containing 20 mM Tris-HCl (pH 8.0, (1M Tris-HCl, pH 8.0 solution; Corning 46-031-CM)), 3 mM BME (2-Mercaptoethanol; Sigma 63689-25ML-F), 0.03% BGG ([…] filtered. Sigma, G7516-25G), and 0.01% Triton X-100 (Sigma, T9284-10L). Nanoliter quantities of 10-point, 3-fold serial dilution in DMSO was pre-dispensed into 1536 assay plates (Corning, #3724BC) for a final test concentration of 25 μM to 1.3 nM, top to lowest dose, respectively. Enzyme USP25, construct USP25-His6, (Boston Biochem E-546). Concentration and incubation times were optimized for the maximal signal-to-background while maintaining initial velocity conditions at a fixed substrate concentration. The final concentration of the enzyme in the assay was 75 pM. Final substrate (Ub-Rh110 Ubiquitin-Rhodamine 110, R&D Systems # U-555) concentration was 25 nM with [Ub-Rh110]<<Km. 3 μL of 2× enzyme was added to assay plates (pre-stamped with compound) preincubated with […] for 30 minutes and then 3 μL of 2×Ub-Rh110 was added to assay plates. Plates were incubated for 45 minutes at room temperature before addition of 3 μL of stop solution (final concentration of 10 mM citric acid (Sigma, 251275-500G)). Fluorescence was read on the Envision (Excitation at 485 nm and Emission at 535 nm; Perkin Elmer) or on the PheraSTAR (Excitation at 485 nm and Emission at 535 nm; BMG Labtech).
# as §1
# Chain of USP28 (Q96RU2 whole entry): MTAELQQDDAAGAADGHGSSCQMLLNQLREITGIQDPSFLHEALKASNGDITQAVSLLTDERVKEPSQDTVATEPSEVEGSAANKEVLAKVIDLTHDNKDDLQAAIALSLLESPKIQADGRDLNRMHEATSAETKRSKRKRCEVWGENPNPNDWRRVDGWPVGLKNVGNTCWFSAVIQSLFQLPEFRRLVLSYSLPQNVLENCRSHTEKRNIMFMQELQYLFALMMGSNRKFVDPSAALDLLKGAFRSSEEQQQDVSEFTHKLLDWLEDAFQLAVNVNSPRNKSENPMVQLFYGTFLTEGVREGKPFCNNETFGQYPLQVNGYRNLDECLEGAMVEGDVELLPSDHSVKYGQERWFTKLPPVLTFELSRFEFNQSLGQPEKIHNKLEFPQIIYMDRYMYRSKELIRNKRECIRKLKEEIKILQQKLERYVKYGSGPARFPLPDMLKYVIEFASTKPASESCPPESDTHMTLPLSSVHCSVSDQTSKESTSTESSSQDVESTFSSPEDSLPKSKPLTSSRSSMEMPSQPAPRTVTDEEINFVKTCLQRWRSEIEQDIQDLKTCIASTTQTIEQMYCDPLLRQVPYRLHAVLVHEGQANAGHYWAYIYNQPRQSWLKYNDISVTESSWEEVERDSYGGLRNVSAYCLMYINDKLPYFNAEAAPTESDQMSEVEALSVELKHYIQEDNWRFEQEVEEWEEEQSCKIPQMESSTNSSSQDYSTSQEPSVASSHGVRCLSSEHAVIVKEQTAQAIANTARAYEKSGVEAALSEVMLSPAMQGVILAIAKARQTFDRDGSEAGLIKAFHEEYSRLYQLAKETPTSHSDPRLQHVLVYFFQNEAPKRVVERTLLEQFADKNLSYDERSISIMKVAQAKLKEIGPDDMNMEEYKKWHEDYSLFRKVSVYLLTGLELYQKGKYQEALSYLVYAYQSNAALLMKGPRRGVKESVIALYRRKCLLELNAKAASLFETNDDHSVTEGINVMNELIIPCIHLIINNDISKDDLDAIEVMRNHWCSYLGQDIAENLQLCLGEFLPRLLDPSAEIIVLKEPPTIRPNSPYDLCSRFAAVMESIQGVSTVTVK
SMILES,pIC50 (USP28),pIC50 (USP25)
"Cc1cnc2c(N)c(C(=O)NC[C@@H](C)c3ccc(N4CC5CCC(C4)N5)c(F)c3)sc2n1 (single isomer, unassigned) [Compound I-12]",5.70 to 6.70,5.00 to 5.70
"Cc1cnc2c(N)c(C(=O)NC[C@H](C)c3ccc(N4CC5CCC(C4)N5)c(F)c3)sc2n1 (single isomer, unassigned) [Compound I-13]",5.70 to 6.70,5.00 to 5.70
"Cc1cnc2c(N)c(C(=O)NC[C@@H](C)c3cc(F)c(N4CC5CCC(C4)N5)cc3F)sc2n1 (single isomer, unassigned) [Compound I-14]",5.00 to 5.70,–
"Cc1cnc2c(N)c(C(=O)NC[C@H](C)c3cc(F)c(N4CC5CCC(C4)N5)cc3F)sc2n1 (single isomer, unassigned) [Compound I-15]",> 6.70,5.00 to 5.70
"Cc1cnc2c(N)c(C(=O)NC[C@@H](C)c3ccc(N4CC5CCC(C4)N5)cc3F)sc2n1 (single isomer, unassigned) [Compound I-16]",5.70 to 6.70,5.70 to 6.70
"Cc1cnc2c(N)c(C(=O)NC[C@H](C)c3ccc(N4CC5CCC(C4)N5)cc3F)sc2n1 (single isomer, unassigned) [Compound I-17]",5.70 to 6.70,5.00 to 5.70
"Cc1cnc2c(N)c(C(=O)NC[C@@H](C)c3ccc(N4CC5CCC(C4)N5)c(C#N)c3)sc2n1 (single isomer, unassigned) [Compound I-18]",5.00 to 5.70,5.00 to 5.70
"Cc1cnc2c(N)c(C(=O)NC[C@H](C)c3ccc(N4CC5CCC(C4)N5)c(C#N)c3)sc2n1 (single isomer, unassigned) [Compound I-19]",5.00 to 5.70,5.00 to 5.70
"Cc1cnc2c(N)c(C(=O)NC[C@@H](C)c3cc(F)c(N4CC5CNCC(C4)O5)cc3F)sc2n1 (single isomer, unassigned) [Compound I-21]",5.70 to 6.70,5.70 to 6.70
"Cc1cnc2c(N)c(C(=O)NC[C@H](C)c3cc(F)c(N4CC5CNCC(C4)O5)cc3F)sc2n1 (single isomer, unassigned) [Compound I-22]",5.70 to 6.70,5.70 to 6.70
"Cc1cnc2c(N)c(C(=O)NCCc3ccc(N4CCNCC4)cc3)sc2n1 [Compound I-1, 7-Amino-3-methyl-N-(4-(piperazin-1-yl)phenethyl)thieno[2,3-b]pyrazine-6-carboxamide]",5.70 to 6.70,–
Cc1cnc2c(N)c(C(=O)NCCc3ccc(N4CCNCC4)c(Cl)c3)sc2n1 [Compound I-2],5.70 to 6.70,–
"Cc1cnc2c(N)c(C(=O)NCCc3ccc(N4CC5CCC(C4)N5)c(Cl)c3)sc2n1 [Compound I-3, N-(4-(3,8-diazabicyclo[3.2.1]octan-3-yl)-3-chlorophenethyl)-7-amino-3-methylthieno[2,3-b]pyrazine-6-carboxamide]",> 6.70,–
Cc1cnc2c(N)c(C(=O)NCCc3cc(F)c(N4CCNCC4)cc3F)sc2n1 [Compound I-4],5.70 to 6.70,5.00 to 5.70
Cc1cnc2c(N)c(C(=O)NCCc3ccc(N4CC5CCC(C4)N5)c(F)c3)sc2n1 [Compound I-6],> 6.70,> 6.70
"Cc1cnc2c(N)c(C(=O)NCCc3cc(F)c(N4CC5CCC(C4)N5)cc3F)sc2n1 [Compound I-7, N-(4-(3,8-diazabicyclo[3.2.1]octan-3-yl)-2,5-difluorophenethyl)-7-amino-3-methylthieno[2,3-b]pyrazine-6-carboxamide]",> 6.70,5.70 to 6.70
Cc1cnc2c(N)c(C(=O)NCCc3ccc(N4CC5CCC(C4)N5)c(C#N)c3)sc2n1 [Compound I-9],5.70 to 6.70,5.70 to 6.70
Cc1cnc2c(N)c(C(=O)NCCc3ccc(N4CC5CCC(C4)N5)cc3F)sc2n1 [Compound I-10],> 6.70,5.70 to 6.70
Cc1cnc2c(N)c(C(=O)NCCc3c(F)cc(N4CC5CCC(C4)N5)cc3F)sc2n1 [Compound I-11],5.70 to 6.70,5.70 to 6.70
Cc1cnc2c(N)c(C(=O)NCCc3c(F)cc(N4CC5CNCC(C4)O5)cc3F)sc2n1 [Compound I-20],> 6.70,> 6.70
CCc1cnc2c(N)c(C(=O)NCCc3ccc(N4CC5CCC(C4)N5)cc3)sc2n1 [Compound I-23],5.00 to 5.70,5.70 to 6.70
